US6858630B2, “Naphthimidazole derivatives and their use as thrombopoietin mimetics” (SmithKline Beecham Corporation, priority 1999, dated 2005)

Biological target: T1, TPO receptor (Homo sapiens, UniProt P40238)
T1 construct: expressed in transfected cells; host or cells: murine BaF3 cells
T1 sequence (P40238 26-635): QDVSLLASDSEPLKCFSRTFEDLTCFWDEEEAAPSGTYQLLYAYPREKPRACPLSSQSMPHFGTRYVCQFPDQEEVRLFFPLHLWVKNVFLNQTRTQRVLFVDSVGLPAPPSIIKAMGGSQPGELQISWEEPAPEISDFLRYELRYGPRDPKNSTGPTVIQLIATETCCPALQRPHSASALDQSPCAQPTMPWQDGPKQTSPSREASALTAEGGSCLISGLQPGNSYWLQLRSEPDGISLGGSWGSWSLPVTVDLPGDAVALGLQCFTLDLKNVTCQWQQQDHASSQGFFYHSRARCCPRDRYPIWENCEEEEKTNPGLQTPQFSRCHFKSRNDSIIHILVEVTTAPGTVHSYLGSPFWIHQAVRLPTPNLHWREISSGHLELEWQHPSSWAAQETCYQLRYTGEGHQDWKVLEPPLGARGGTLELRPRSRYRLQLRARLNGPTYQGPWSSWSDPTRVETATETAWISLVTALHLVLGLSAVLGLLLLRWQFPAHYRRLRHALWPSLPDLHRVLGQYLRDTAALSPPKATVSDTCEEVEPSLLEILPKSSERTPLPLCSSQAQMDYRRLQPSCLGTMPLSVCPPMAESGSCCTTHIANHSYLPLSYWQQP
Assay: Luciferase assay (TPO-responsive BaF3 cell line)
Assay type: cell-based, murine
Conditions: at a concentration of 2 uM; control is the maximal response to TPO
Description: Compounds of the present invention were tested for potency as mimetics of the TPO receptor in a Luciferase assay such as described in Lamb, et al., Nucleic Acids Research 23; 3283-3289 (1995) and Seidel, et al., Proc. Natl. Acad. Sci., USA 92: 3041-3045 (1995) by substituting a TPO-responsive BaF3 cell line (Vigon et al. Proc. Natl. Acad. Sci. USA 1992, 89, 5640-5644) for the HepG2 cells utilized therein. The murine BaF3 cells express TPO receptors and closely match the pattern of STAT (signal transducers and activators of transcription) activation observed in primary murine and human bone marrow cells.

For `COc1c(-c2ccc(C)cc2)cccc1-c1nc2c(ccc3cc(S(=O)(=O)O)cc(O)c32)[nH]1.Cl` [Compound 14, 2-(3-[4′-Methylphenyl]-2-methoxyphenyl)-9-hydroxy-naphth[1,2-d]imidazole-7-sulfonic acid hydrochloride], the “activation, % of control in the luciferase assay” value was “about 25%”.
